As a reminder, the MIC is the lowest concentration that inhibits growth of the organism.

In ChEMBL document CHEMBL1150748, “Isolation of the antimicrobial alkaloid stemmadenine from Iraqi Rhazya stricta” (1988) one finds MIC data, which are given here for 4 compounds.

What all share (assay type): functional
One test concerns Pseudomonas aeruginosa. In words: Antimicrobial activity against Pseudomonas aeruginosa ATCC 9027.
A further test has as its system Escherichia coli. Description: Antimicrobial activity against Escherichia coli ATCC 8739.
For the next test, the system named is Staphylococcus aureus. In words: Antimicrobial activity against Staphylococcus aureus ATCC 6538.
A further test has as its system Candida albicans. Description: Antimicrobial activity against Candida albicans ATCC 10231.

Converted amounts (≈) assume the structure as drawn.

For the compound `CC(=O)O.CC(=O)O.NC(=N\CCCCCC/N=C(N)/N=C(\N)Nc1ccc(Cl)cc1)/N=C(\N)Nc1ccc(Cl)cc1` [CHLORHEXIDINE DIACETATE], the minimal inhibitory concentration (MIC) with Pseudomonas aeruginosa was 1.5 µg/mL; against Escherichia coli it was 0.4 µg/mL; against Staphylococcus aureus it was 0.2 µg/mL; with Candida albicans, 4.5 µg/mL.

For the compound `C/C=C1/CN2CCc3c([nH]c4ccccc34)[C@@](CO)(C(=O)OC)[C@@H]1CC2` [STEMMADENINE], the MIC was determined as 7.5 µg/mL (≈ 21.2 µM) in the test with Pseudomonas aeruginosa, 1.25 µg/mL (≈ 3.53 µM) against Escherichia coli, 5 µg/mL (≈ 14.1 µM) against Staphylococcus aureus and 37.5 µg/mL (≈ 106 µM) in the test on Candida albicans.

`CCCCCCCCCCCCC[N+](C)(C)Cc1ccccc1.[Cl-]` [BENZALKONIUM CHLORIDE]: the minimal inhibitory concentration (MIC) in the test on Pseudomonas aeruginosa amounted to 8 µg/mL; in the test on Escherichia coli, 2.8 µg/mL; in the test on Staphylococcus aureus, 0.32 µg/mL; in the test on Candida albicans, 1.8 µg/mL.

As for THIMEROSAL, the minimum inhibitory concentration (MIC) against Pseudomonas aeruginosa was 1.5 µg/mL; against Escherichia coli, 0.6 µg/mL; against Staphylococcus aureus, 0.2 µg/mL; in the test with Candida albicans, 0.1 µg/mL.
